Laboratory results: patent US20100297020A1, “PHOSPHORYLATED AND PHOSPHONATED PYRONE ANALOGS FOR THERAPEUTIC TREATMENT” (Limerick Biopharma, Inc., priority 2008, published 2010)

What was measured:
[1] = biological target: T1, AdrenergicA2A (Homo sapiens, UniProt P08913); assay: AdrenergicA2A GTPγS functional assay; type: biochemical; details: 10 μM; compound may be / can be tested
T1 sequence (P08913 1-465): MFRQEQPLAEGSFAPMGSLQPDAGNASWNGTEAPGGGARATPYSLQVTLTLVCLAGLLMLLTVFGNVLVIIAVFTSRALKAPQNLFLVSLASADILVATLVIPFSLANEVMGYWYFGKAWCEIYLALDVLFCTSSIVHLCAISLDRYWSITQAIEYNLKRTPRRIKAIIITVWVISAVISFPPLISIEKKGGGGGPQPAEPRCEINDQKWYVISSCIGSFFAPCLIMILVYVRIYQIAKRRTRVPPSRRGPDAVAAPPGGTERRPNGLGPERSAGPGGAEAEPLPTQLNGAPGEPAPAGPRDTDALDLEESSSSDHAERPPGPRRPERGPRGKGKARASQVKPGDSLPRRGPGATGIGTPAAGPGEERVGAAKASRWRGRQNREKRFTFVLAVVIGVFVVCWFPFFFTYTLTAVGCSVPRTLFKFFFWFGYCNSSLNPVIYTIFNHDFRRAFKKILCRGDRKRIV
Protocol: The compound is additionally tested in AdenosineA1, AdrenergicA2A, DopamineD25, Histamine H1-, and μ-Opiate GTPγS functional assays using a concentration of 10 μM.
The compound may be additionally tested in AdenosineA1, AdrenergicA2A, DopamineD25, Histamine H1-, and μ-Opiate GTPγS functional assays using a concentration of 10 μM.
The compound can be additionally tested in AdenosineA1, AdrenergicA2A, DopamineD25, Histamine H1-, and μ-Opiate GTPγS functional assays using a concentration of 10 μM.

[2] = tested on: ZDF rats; assay: Oral glucose tolerance test (OGTT) in ZDF rats after the 4 week study; type: in vivo; details: glucose 2 g/Kg PO; compound 2 100 mg/kg, compound 3 50 mg/kg i.p.
Protocol: Following the 4 week study described in Example 26 above, the animals were fasted for 12 hours and on day-29, pre-drug blood samples are collected and glucose level and insulin level are measured. The animals are treated intraperitoneally (i.p.) with the following compounds:
Thirty (30) minutes after the treatment, pre-glucose blood samples are collected and the animals are then dosed with glucose (2 g/Kg, PO). Tail vein blood samples are collected at 30, 60, 90 and 120 minutes. Glucose levela and insulin leveal are measured. FIG. 31 show the plasma glucose level measured during OGTT. […] FIG. 32 show the plasma insulin level measured during OGTT. Phosphonated pyrone analogs raise insulin output in response to OGTT.

With `O=c1c(O)c(-c2ccc(O)c(OCP(=O)(O)O)c2)oc2cc(O)cc(O)c12` [Compound 2, Quercetin-3′-O-methylphosphonic acid] the “inhibition in the AdrenergicA2A assay” value [1] was “marked negative inhibition” and the “plasma glucose level during OGTT” value [2] was “protect against hyperglycemia”.
